Measurements published in patent publication US20180207249A1, “METHOD AND VACCINE COMPRISING COPOLYMER 1 FOR TREATMENT OF PSYCHIATRIC DISORDERS” (YEDA RESEARCH AND DEVELOPMENT CO. LTD., priority 2003, published 2018).
Counter-ions that a name gives are not always drawn.

Assays:
Cop-1-reactive T cells = assay: ELISA of BDNF secreted by Cop-1-reactive T cells; assay type: cell-based, Lewis rats; details: 48 h stimulation with antigen; for BDNF secreted by Cop-1-reactive T cells (mean): mean of three independent experiments, no antigen 400
Experimental: (iv) T-cell lines. Ten days after Cop-1 immunization, T-cell lines were generated from draining lymph node cells obtained from Lewis rats immunized with Cop-1 emulsified in CFA. The lymph nodes were surgically removed, dissociated, washed, and then activated with the antigen (10 μg/ml) in stimulation medium as previously reported (Kipnis et al., 2000). The T-cells lines were expanded by repeated stimulation and propagation.
(v) Enzyme-linked immunosorbent assay. T cell-reactive Cop-1 cells were grown for 1 week in a propagation medium, then washed with PBS and re-suspended in stimulation medium. The cultured T cells (0.5×10^6 cells/mL) were then incubated, in the presence of irradiated thymocytes (10^7 cells/mL), with concanavalin A (Con A; 1.25 μg/mL), myelin basic protein (MRP; 10 μg/ml), Cop-1 (10 μg/mL), ovalbumin (OVA; 10 μg/mL), or no antigen, in stimulation medium. After 48 h the cells were centrifaged and their supernatants were collected and sampled. Concentrations of brain-derived neurotrophic factor (BDNF) in the samples were determined with a sensitive sandwich ELISA. In brief 96-well flat-bottomed plates were coated with a chicken anti-human BDNF antibody (Promega, Madison, Wis.) in 0.025 M NaHCO3 and 0.025 M Na2CO3 (pH 8.2). Recombinant human BDNF (used as a standard; Research Diagnostics, Flanders, N.J.) was used in serial dilutions in blocking solution containing 3% bovine serum albumin, 0.05% polyoxyethylene-sorbitan monolaurate (Tween-20), and 1% fetal calf serum in PBS (pH 8.2). Bound BDNF was detected by incubating the plates with a mouse anti-human BDNF antibody (Research Diagnostics) and then with peroxidase-conjugated goat anti-mouse IgG (Jackson ImmunoResearch, West Grove, Pa.) in blocking solution. The plates were developed using a 3,3′,5,5′-tetramethylbenzidine liquid substrate system (Sigma-Aldrich). The reaction was stopped by adding 1M H3PO4, and the optical density was determined at 450 nm. Results for each experiment were calculated as the amount of secreted BDNF per 1 mL of sample, after subtraction of background levels of the irradiated thymocytes incubated with the stimulation medium.
Cop-1-reactive T cells were cultured for 48 h with Cop-1, MBP, ovalbumin, or concanavalin A in stimulation medium. T cell supernatants were collected and subjected to sandwich ELISA. […] Values are mean values (pg/ml) +/− SE (from three independent experiments) of the amounts of BDNF secreted by Cop-1-specific T cells in response to stimulation by various antigens.

[1] = system: C57BL/6J mice injected with MK-801 or AMPH; assay: Prepulse inhibition (PPI) of the acoustic startle response after psychotomimetic drug; assay type: in vivo, mouse; details: vehicle (PBS/CFA)-immunized C57BL/6J mice; MK-801 0.1 mg/kg i.p. or AMPH 2.5 mg/kg i.p.
Experimental: (§1) (iii) Immunization. Each animal was injected with a total of 100 μg of Cop-1 emulsified in an equal volume of complete Freund's adjuvant (CPA) containing 5 mg/ml of Mycobacteria H37 RA (Difco). The emulsion, in a total volume of 0.1 mL, was injected into the flank 1 week before the mouse was first injected with a psychotomimetic drug. Control mice were injected with an equal volume of phosphate-buffered saline (PBS) emulsified in CFA.
(vi) Drug solutions. Fresh solutions of dizocilpine maleate (MK-801; Sigma-Aidrich) were prepared in physiological saline (0.9% NaCl in sterile distilled water) for each batch of mice. […]
(viii) Prepulse inhibition (PPT). […] Acoustic PPI was measured by prepuise plus pulse trials consisting of a 2-ms prepuise, 100 ms delay, and then a 40-ms, 120-dB startle pulse. […]
PPI was calculated as a percentage score for each acoustic prepulse trial type: % PPI=100. {[(startle response for prepuise+pulse)/(startle response for pulse-alone)]×100}. The magnitude of the acoustic startle response was calculated as the average response to all of the pulse-alone trials, excluding the first and last blocks of five pulse-alone trials each. […]
(xi) Acoustic startle response (ASR). […] The ASR and pre-pulse inhibition were measured using two ventilated startle chambers (SR-LAB system, San Diego Instruments, San Diego, Calif.). […] These readings (signals) were digitized and stored in a computer. […]

[2] = system: C57BL/6J mice injected with MK-801 or AMPH; assay: Morris water maze (MWM) spatial learning/memory task after psychotomimetic drug; assay type: in vivo, mouse; details: C57BL/6J mice; MK-801 0.1 mg/kg i.p. or AMPH 2.5 mg/kg i.p.; relative to naive normal mice
Experimental: as §1
(vi) Drug solutions. Fresh solutions of dizocilpine maleate (MK-801; Sigma-Aidrich) were prepared in physiological saline (0.9% NaCl in sterile distilled water) for each batch of mice. Physiological saline was also used as a vehicle for D-amphetamine sulfate (AMPH: Sigma). MK-801. (0.1 mg/kg) or AMPH (2.5 mg/kg) or sahne was injected i.p., in a total volume of 5 ml per kg of body weight. Mice were injected with MK-801, AMPH, or vehicle 15 min before being subjected to behavioral tests.
(vii) Morris water maze (MWM) behavioral test. Spatial learning/memory was assessed by performance on a hippocampal-dependent visuospatial learning task in the MWM. Mice were given four trials per day, for four consecutive days, to find a hidden platform located 1.5 cm below the water surface in a pool 1.4 m in diameter. Within the testing room only distal visuo-spatial cues were available to the mice for location of the submerged platform. The escape latency, i.e., the time required by the mouse to find and climb onto the platform, was recorded for up to 60 s. Each mouse was allowed to remain on the platform for 30 s, and was then moved from the maze to its home cage. […] The inter-trial interval was 30 s. On day 5, the platform was removed from the pool, and each mouse was tested by a probe trial for 60 s. On days 6-7 the platform was placed at the opposite, location, and the mouse was retrained in four sessions. Data were recorded by using an EthoVision automated tracking system (Noldus Information Technology, Wageningen, The Netherlands). […]

Molecule	BDNF secreted by Cop-1-reactive T cells (mean) (Cop-1-reactive T cells)	Effect of psychotomimetic drug on PPI of the ASR [1]	Effect of psychotomimetic drug on MWM spatial learning and memory performance [2]	Secretion of BDNF by Cop-1-reactive T cells compared with unstimulated T cells (Cop-1-reactive T cells)
concanavalin A [Con A]	1100 pg/mL	–	–	–
C[C@]12N[C@H](Cc3ccccc31)c1ccccc12 [MK-801, (+)dizocilpine maleate]	–	significantly disrupted PPI	significantly impaired	–
C[C@H](N)Cc1ccccc1 [AMPH, D-amphetamine sulfate]	–	significantly disrupted PPI	significantly impaired	–
ovalbumin (protein, UniProt P01012 2-386, looked up) Ovalbumin: GSIGAASMEFCFDVFKELKVHHANENIFYCPIAIMSALAMVYLGAKDSTRTQINKVVRFDKLPGFGDSIEAQCGTSVNVHSSLRDILNQITKPNDVYSFSLASRLYAEERYPILPEYLQCVKELYRGGLEPINFQTAADQARELINSWVESQTNGIIRNVLQPSSVDSQTAMVLVNAIVFKGLWEKAFKDEDTQAMPFRVTEQESKPVQMMYQIGLFRVASMASEKMKILELPFASGTMSMLVLLPDEVSGLEQLESIINFEKLTEWTSSNVMEERKIKVYLPRMKMEEKYNLTSVLMAMGITDVFSSSANLSGISSAESLKISQAVHAAHAEINEAGREVVGSAEAGVDAASVSEEFRADHPFLFCIKHIATNAVLFFGRCVSP	440 pg/mL	–	–	–
myelin basic protein (protein, UniProt P02686 1-304, looked up) Myelin basic protein: MGNHAGKRELNAEKASTNSETNRGESEKKRNLGELSRTTSEDNEVFGEADANQNNGTSSQDTAVTDSKRTADPKNAWQDAHPADPGSRPHLIRLFSRDAPGREDNTFKDRPSESDELQTIQEDSAATSESLDVMASQKRPSQRHGSKYLATASTMDHARHGFLPRHRDTGILDSIGRFFGGDRGAPKRGSGKDSHHPARTAHYGSLPQKSHGRTQDENPVVHFFKNIVTPRTPPPSQGKGRGLSLSRFSWGAEGQRPGFGYGGRASDYKSAHKGFKGVDAQGTLSKIFKLGGRDSRSGSPMARR	1500 pg/mL	–	–	significantly increased
